Where a chain is given by its changes, count along the chain named. Like-named read-outs stand apart in the source and are kept apart here. Values belong to the compound of their own block, whether it stands above or below them.
Columns and labels:
CYP2A7-WT [1] = target: T1, CYP2A7-WT (Homo sapiens, UniProt P20853, D169E/H274R/R311C/V479G); experiment: in vitro
T1 sequence (P20853 1-494 D169E/H274R/R311C/V479G): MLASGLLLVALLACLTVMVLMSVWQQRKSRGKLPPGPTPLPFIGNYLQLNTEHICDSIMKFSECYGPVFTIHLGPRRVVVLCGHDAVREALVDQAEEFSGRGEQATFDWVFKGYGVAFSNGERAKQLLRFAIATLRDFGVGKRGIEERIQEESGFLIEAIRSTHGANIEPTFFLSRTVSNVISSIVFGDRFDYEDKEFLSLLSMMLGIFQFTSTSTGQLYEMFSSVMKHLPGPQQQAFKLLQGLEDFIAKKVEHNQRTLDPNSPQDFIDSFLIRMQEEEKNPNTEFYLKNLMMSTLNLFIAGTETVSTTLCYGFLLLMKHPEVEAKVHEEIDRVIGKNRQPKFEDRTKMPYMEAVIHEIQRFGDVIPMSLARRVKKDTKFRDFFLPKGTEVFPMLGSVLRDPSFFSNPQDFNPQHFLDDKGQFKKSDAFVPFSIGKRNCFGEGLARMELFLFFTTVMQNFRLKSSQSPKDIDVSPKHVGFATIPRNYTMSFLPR

CYP2A6*1 [2] = target: T2, CYP2A6*1 (Homo sapiens, UniProt P11509); experiment: in vitro
T2 sequence (P11509 1-494): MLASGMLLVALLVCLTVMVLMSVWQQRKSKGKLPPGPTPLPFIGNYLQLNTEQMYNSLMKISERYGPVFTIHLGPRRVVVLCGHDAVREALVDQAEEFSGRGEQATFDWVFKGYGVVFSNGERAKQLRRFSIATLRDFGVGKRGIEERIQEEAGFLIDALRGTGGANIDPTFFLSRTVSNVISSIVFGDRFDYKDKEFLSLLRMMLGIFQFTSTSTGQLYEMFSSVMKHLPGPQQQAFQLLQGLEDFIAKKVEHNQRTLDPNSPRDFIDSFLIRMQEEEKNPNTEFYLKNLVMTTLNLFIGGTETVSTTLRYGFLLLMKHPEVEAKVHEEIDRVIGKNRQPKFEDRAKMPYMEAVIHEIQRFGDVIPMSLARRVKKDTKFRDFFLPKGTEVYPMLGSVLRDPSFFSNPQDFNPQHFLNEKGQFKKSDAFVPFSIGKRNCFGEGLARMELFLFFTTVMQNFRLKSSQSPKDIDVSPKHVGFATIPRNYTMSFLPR

CYP2A7*1 [3] = target: T3, CYP2A7*1 (Homo sapiens, UniProt P20853); experiment: in vitro
T3 sequence (P20853 1-494): T1 sequence (P20853 1-494 D169E/H274R/R311C/V479G) with E169D, R274H, C311R, G479V

CYP2A6*1 [4] = target: T2, CYP2A6*1; experiment: Fluorescence detection of coumarin 7-hydroxylation and deethylation of 7-ethoxycoumarin; type: biochemical; set-up: expressed in transfected cells; host or cells: Schizosaccharomyces pombe strain RAJ122 (pREP1-CYP2A6*1 in CAD62), permeabilized cells (enzyme bags); settings: by CYP2A6*1; fluorometric
Experimental: (§1) The fluorescence activity of CYP enzymes was measured as described with slight modifications. The solution was shaken at 37 °C for 3 h in the dark at a 50 µL final reaction volume. Afterwards, reactions were stopped by adding 350 µL ethyl acetate. The reaction tubes were vortexed for 5 min before centrifugation at 16,000× g for 8 min. Finally, 200 µL of the upper phase was extracted three times with 350 µL of ethyl acetate each. In the last step, the reaction tubes were air-dried in the dark. For reconstituting the pellet we added 50 µL of methanol, which was later followed by the addition of 250 µL of 0.01 M NaOH. The amounts of de-ethylated products were quantified by using standard solutions of 7-hydroxycoumarin and 7-ethoxycoumarin. The concentrations of 7-hydroxycoumarin were determined fluorometrically with 50 µL volume using Grenier microlon flat-bottom 96-well black plates. The energies for excitation and emission were set at 368 and at 530 nm, respectively. All readings were taken in triplicate.

CYP2A7-WT [5] = target: T1, CYP2A7-WT; experiment: as above; type: biochemical; set-up: expressed in transfected cells; host or cells: Schizosaccharomyces pombe strain AA01 (pREP1-CYP2A7-WT in CAD62), permeabilized cells (enzyme bags); settings: by CYP2A7-WT; fluorometric
Experimental: as §1

CYP2A7*1 [6] = target: T3, CYP2A7*1; experiment: as above; type: biochemical; set-up: expressed in transfected cells; host or cells: Schizosaccharomyces pombe strain RAJ127 (pREP1-CYP2A7*1 in CAD62), permeabilized cells (enzyme bags); settings: by CYP2A7*1; fluorometric
Experimental: as §1

CYP2A7-WT [7] = target: T1, CYP2A7-WT; experiment: Conversion of luminogenic (proluciferin) substrates by permeabilized fission yeast cells (enzyme bags); type: biochemical; set-up: expressed in transfected cells; host or cells: Schizosaccharomyces pombe strain AA01 (pREP1-CYP2A7-WT in CAD62), permeabilized cells (enzyme bags); settings: for Luminescence (RLU): enzyme CYP2A7-WT coexpressed with CPR, compound as substrate, 3 h, 37 °C, mean ± SD
Experimental: (§2) Briefly, a concentrated CYP reaction mixture (containing a fourfold concentrated substrate and potassium phosphate buffer) was added to the cell pellets after the permeabilization and washing process. For inhibition assays, the CYP reaction mixtures with the inhibitors at a final concentration of 10 µM were pre-incubated at 37 °C for 10 min. CYP reactions were commenced by adding the twofold concentrated NADPH regeneration system. Samples were incubated for 3 h at 37 °C and 1000 rpm. After centrifugation at 16,000× g for 1 min, the supernatants were transferred to the white microtiter plates and an equal amount of reconstituted luciferin detection reagent was added to each well. Plates were then incubated at room temperature for 20 min and the luminescence was recorded on a Magellan infinite 200Pro microplate reader (Tecan; Männedorf, Switzerland). For the proluciferin substrates’ screening, the specific reaction conditions and substrate concentrations were as given in the instructions of the manufacturer (Promega). […] For inhibitor assays, ketoconazole, 1-benzylimidazole, and letrozole were added to a final concentration of 10 µM. All measurements were done at least three times in triplicates.

CYP2A7*1 [8] = target: T3, CYP2A7*1; experiment: as above; type: biochemical; set-up: expressed in transfected cells; host or cells: Schizosaccharomyces pombe strain RAJ127 (pREP1-CYP2A7*1 in CAD62), permeabilized cells (enzyme bags); settings: for Conversion of luminogenic substrate (in words): by CYP2A7*1, vs. negative control (CPR only); for Luminescence (RLU): enzyme CYP2A7*1 coexpressed with CPR, compound as substrate, 3 h, 37 °C, mean ± SD
Experimental: as §2

CYP2A6*1 [9] = target: T2, CYP2A6*1; settings: by CYP2A6*1, vs. negative control (CPR only)
Experimental: This was performed as described previously with slight modifications. Briefly, fission yeast cells were cultured on EMM plates with 5 µM thiamine for 3 days at 30 °C. A single yeast colony was then transferred to a 10 mL liquid culture of EMM without thiamine and cultured at 30 °C and 230 rpm for 36 h. As the recombinant expression of the human enzymes is controlled by the strong endogenous nmt1 promoter, all subsequent cultures were cultured in the absence of thiamine to keep the promoter in an active state. For each activity assay, 5 × 10^7 cells (stationary growth phase) were transferred to 1.5 mL Eppendorf tubes (Axygen; Silicon Valley, USA), pelleted, and incubated in 1 mL of 0.3% Triton-X100 in Tris-KCl buffer (200 mM KCl, 100 mM Tris-HCl pH 7.8) at room temperature for 60 min at 150 rpm for permeabilization. After three washes with 1 mL NH4HCO3 buffer (50 mM, pH 7.8), cells were resuspended in phosphate buffer (pH 7.4) and then the substrate and the NADPH regeneration system were added to a total volume of 50 µL. The samples were incubated at 37 °C and 1000 rpm for 3 h. […]
This was performed as described previously with slight modifications. […] Plates were then incubated at room temperature for 20 min and the luminescence was recorded on a Magellan infinite 200Pro microplate reader (Tecan; Männedorf, Switzerland). […]

CYP2A7*1 [10] = target: T3, CYP2A7*1; settings: by CYP2A7*1; nicotine 250 µM
Experimental: (§3) This was performed as described previously with slight modifications. Briefly, fission yeast cells were cultured on EMM plates with 5 µM thiamine for 3 days at 30 °C. A single yeast colony was then transferred to a 10 mL liquid culture of EMM without thiamine and cultured at 30 °C and 230 rpm for 36 h. As the recombinant expression of the human enzymes is controlled by the strong endogenous nmt1 promoter, all subsequent cultures were cultured in the absence of thiamine to keep the promoter in an active state. For each activity assay, 5 × 10^7 cells (stationary growth phase) were transferred to 1.5 mL Eppendorf tubes (Axygen; Silicon Valley, USA), pelleted, and incubated in 1 mL of 0.3% Triton-X100 in Tris-KCl buffer (200 mM KCl, 100 mM Tris-HCl pH 7.8) at room temperature for 60 min at 150 rpm for permeabilization. After three washes with 1 mL NH4HCO3 buffer (50 mM, pH 7.8), cells were resuspended in phosphate buffer (pH 7.4) and then the substrate and the NADPH regeneration system were added to a total volume of 50 µL. The samples were incubated at 37 °C and 1000 rpm for 3 h. For LC-MS analysis, the reaction mixture was extracted with an equal amount of ethyl acetate by centrifugation, and the supernatants were stored at −20 °C until use.
(§4) An Agilent HPLC/microTOF-Q II instrument equipped with a LiChrospher 100 RP-18 column was used to carry out all analytical procedures. The mobile phase that we used was a mixture of water with 0.05% formic acid as phase A and 100% acetonitrile as B, run at a constant flow of 0.3 mL/min for 45 min. The gradient used was 0–20 min (80% A: 20% B to 80% B), 20–30 min (100% B), 30–35 min again (100% B), and 35–45 min (80% A: 20% B). We used positive electrospray ionization mode at a capillary voltage of 4.5 kV for mass spectrometry.

CYP2A7-WT [11] = target: T1, CYP2A7-WT; settings: by CYP2A7-WT; nicotine 250 µM
Experimental: as §3, §4

CYP2A6*1 [12] = target: T2, CYP2A6*1; settings: by CYP2A6*1; nicotine 250 µM
Experimental: as §3, §4

[13] = pH 7.4, probe Luciferin-H (100 µM)

SMILES: c1ccc(Cn2ccnc2)cc1 [1-Benzyl-imidazole]
inhibition at 3 h, 10 µM (CYP2A7-WT [1]; pH 7.4): 80 ± 21% | inhibition at 3 h, 10 µM (CYP2A6*1 [2]): 64 ± 12% | inhibition at 3 h, 10 µM (CYP2A7*1 [3]; pH 7.4): 55 ± 11%

SMILES: CC(=O)N1CCN(c2ccc(OCC3COC(Cn4ccnc4)(c4ccc(Cl)cc4Cl)O3)cc2)CC1 (centres unmarked) [Ketoconazole]
inhibition at 3 h, 10 µM (CYP2A7-WT [1]; [13]): 58 ± 17% | inhibition at 3 h, 10 µM (CYP2A6*1 [2]; probe Luciferin-H (100 µM)): 70 ± 11% | inhibition at 3 h, 10 µM (CYP2A7*1 [3]; [13]): 74 ± 4%

SMILES: N#Cc1ccc(C(c2ccc(C#N)cc2)n2cncn2)cc1 [Letrozole]
inhibition at 3 h, 10 µM (CYP2A7-WT [1]; [13]): 72 ± 13% | inhibition at 3 h, 10 µM (CYP2A6*1 [2]; probe Luciferin-H (100 µM)): 64 ± 10% | inhibition at 3 h, 10 µM (CYP2A7*1 [3]; [13]): 78 ± 7%

SMILES: COc1ccc2nc(C3=NC(C(=O)O)CS3)sc2c1 (centres unmarked) [Luciferin-ME]
Conversion of luminogenic substrate (in words) (CYP2A6*1 [9]): can both metabolize | Conversion of luminogenic substrate (in words) (CYP2A7-WT [7]; by CYP2A7-WT, vs. negative control (CPR only)): also acted on both substrates | Luminescence (RLU) (CYP2A7-WT [7]): 439 ± 113 RLU | Conversion of luminogenic substrate (in words) (CYP2A7*1 [8]): can both metabolize | Luminescence (RLU) (CYP2A7*1 [8]): 276 ± 63 RLU

SMILES: CN1CCC[C@H]1c1cccnc1 [nicotine]
Metabolization of nicotine to the nicotine iminium ion (CYP2A7*1 [10]): no nicotine metabolite was found | Metabolization of nicotine to the nicotine iminium ion (CYP2A7-WT [11]): no nicotine metabolite was found | Metabolization of nicotine to the nicotine iminium ion (CYP2A6*1 [12]): confirmed the metabolization

Second part, the compound after the results:

Conversion to 7-hydroxycoumarin (CYP2A6*1 [4]): confirmed the activity | Conversion to 7-hydroxycoumarin (CYP2A7-WT [5]): no reaction was observed | Conversion to 7-hydroxycoumarin (CYP2A7*1 [6]): no reaction was observed
SMILES: CCOc1ccc2ccc(=O)oc2c1 [7-ethoxycoumarin]

Conversion to 7-hydroxycoumarin (CYP2A6*1 [4]): confirmed the activity | Conversion to 7-hydroxycoumarin (CYP2A7-WT [5]): no reaction was observed | Conversion to 7-hydroxycoumarin (CYP2A7*1 [6]): no reaction was observed
SMILES: O=c1ccc2ccccc2o1 [Coumarin, coumarin]

Luminescence (RLU) (CYP2A7-WT [7]): 6312 ± 699 RLU | Conversion of luminogenic substrate (in words) (CYP2A7*1 [8]): are CYP2A7*1 substrates | Luminescence (RLU) (CYP2A7*1 [8]): 16,216 ± 369 RLU
SMILES: O=C(O)[C@H]1CSC(c2nc3ccc(OCc4ccccc4)cc3s2)=N1 [Luciferin-BE]

Source: paper PMC11123773, “Identification of New Substrates and Inhibitors of Human CYP2A7” (Molecules, 2024)
